Results taken from patent publication US11053204B2, “Pyrimidinyloxy benzene derivatives as herbicides” (FMC Corporation, priority 2015, dated 2021).

How the values were obtained:
Format in all cases: in vivo
[1] = tested on: Italian ryegrass (Lolium multiflorum); experiment: Test A postemergence, visual injury rating; conditions: 0 to 100 scale, 0 is no effect, 100 is complete control, approximately 10 days
Method in brief: (§1)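 Greenhouse pot test, loam/sand soil. Formulation: non-phytotoxic solvent mix plus surfactant. Pre: directed spray onto soil after sowing. Post: plants at 1–2 leaf, 2–10 cm. Rated visually vs untreated controls at ~10 d, 0 (no effect) to 100 (complete control).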

[2] = tested on: barnyardgrass (Echinochloa crus-galli); experiment: Test A postemergence, visual injury rating; conditions: 0 is no effect, 100 is complete control; for Barnyardgrass plant response rating: 31 g ai/ha, 0 to 100 scale, approximately 10 days; for Barnyardgrass plant response rating (0 to 100 scale): 125 g ai/ha
Method in brief: as §1

[3] = tested on: blackgrass (Alopecurus myosuroides); experiment: Test A postemergence, visual injury rating; conditions: 0 is no effect, 100 is complete control; for Blackgrass plant response rating: 31 g ai/ha, 0 to 100 scale, approximately 10 days; for Blackgrass plant response rating (0 to 100 scale): 125 g ai/ha
Method in brief: as §1

corn (Zea mays) = experiment: Test A postemergence, visual injury rating; conditions: 0 is no effect, 100 is complete control; for Corn plant response rating: 31 g ai/ha, 0 to 100 scale, approximately 10 days; for Corn plant response rating (0 to 100 scale): 125 g ai/ha
Method in brief: as §1

[4] = tested on: galium (catchweed bedstraw, Galium aparine); experiment: Test A postemergence, visual injury rating; conditions: 0 is no effect, 100 is complete control; for Galium plant response rating: 31 g ai/ha, 0 to 100 scale, approximately 10 days; for Galium plant response rating (0 to 100 scale): 125 g ai/ha
Method in brief: as §1

[5] = tested on: giant foxtail (Setaria faberii); experiment: Test A postemergence, visual injury rating; conditions: 0 is no effect, 100 is complete control; for Foxtail, Giant plant response rating: 31 g ai/ha, 0 to 100 scale, approximately 10 days; for Foxtail, Giant plant response rating (0 to 100 scale): 125 g ai/ha
Method in brief: as §1

kochia (Kochia scoparia) = experiment: Test A postemergence, visual injury rating; conditions: 0 to 100 scale, 0 is no effect, 100 is complete control, approximately 10 days
Method in brief: as §1

[6] = tested on: pigweed (Amaranthus retroflexus); experiment: Test A postemergence, visual injury rating; conditions: 0 to 100 scale, 0 is no effect, 100 is complete control, approximately 10 days
Method in brief: as §1

[7] = tested on: ragweed (common ragweed, Ambrosia elatior); experiment: Test A postemergence, visual injury rating; conditions: 0 to 100 scale, 0 is no effect, 100 is complete control, approximately 10 days
Method in brief: as §1

[8] = tested on: wheat (Triticum aestivum); experiment: Test A postemergence, visual injury rating; conditions: 0 to 100 scale, 0 is no effect, 100 is complete control, approximately 10 days
Method in brief: as §1

[9] = tested on: barnyardgrass (Echinochloa crus-galli); experiment: Test B flooded paddy test, plant response rating; conditions: 250 g ai/ha; Flood; scale of 0 to 100 where 0 is no effect and 100 is complete control; 13 to 15 days
Method in brief: (§2)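 Flooded 3 cm over soil; compound into paddy water; depth kept constant. Greenhouse 13–15 d.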

[10] = tested on: ducksalad (Heteranthera limosa); experiment: Test B flooded paddy test, plant response rating; conditions: 250 g ai/ha; Flood; scale of 0 to 100 where 0 is no effect and 100 is complete control; 13 to 15 days
Method in brief: as §2

rice (Oryza sativa) = experiment: Test B flooded paddy test, plant response rating; conditions: 250 g ai/ha; Flood; scale of 0 to 100 where 0 is no effect and 100 is complete control; 13 to 15 days
Method in brief: as §2

[11] = tested on: sedge, umbrella (small-flower umbrella sedge, Cyperus difformis); experiment: Test B flooded paddy test, plant response rating; conditions: 250 g ai/ha; Flood; scale of 0 to 100 where 0 is no effect and 100 is complete control; 13 to 15 days
Method in brief: as §2

[12] = tested on: barnyardgrass (Echinochloa crus-galli); experiment: Test C preemergence, plant response rating; conditions: Preemergence
[13] = tested on: galium (catchweed bedstraw, Galium aparine); experiment: Test C postemergence, plant response rating; conditions: for Galium plant response rating: scale 0 to 100 (0 no effect, 100 complete control)
Method in brief: (§3)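 Greenhouse plants rated visually against untreated controls 13–15 d after treatment, scale 0 = no effect to 100 = complete control. Postemergence sprays went onto potted plants 2–18 cm tall (1–4 leaves); preemergence sprays onto soil freshly sown in loam–sand or silt loam, chemicals formulated in non-phytotoxic solvent with surfactant.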

[14] = tested on: ragweed (common ragweed, Ambrosia elatior); experiment: Test C postemergence, plant response rating; conditions: for Ragweed plant response rating: scale 0 to 100 (0 no effect, 100 complete control)
Method in brief: as §3

[15] = tested on: velvetleaf (Abutilon theophrasti); experiment: Test C postemergence, plant response rating; conditions: for Velvetleaf plant response rating: 125 g ai/ha, scale 0 to 100 (0 no effect, 100 complete control)
Method in brief: as §3

[16] = tested on: waterhemp (common waterhemp, Amaranthus rudis); experiment: Test C postemergence, plant response rating; conditions: for Waterhemp plant response rating: 125 g ai/ha, scale 0 to 100 (0 no effect, 100 complete control)
Method in brief: as §3

## N#Cc1cccc(Oc2ncc(Cl)cn2)c1COCCC(F)(F)F [Compound 80]
[1]; 31 g ai/ha
  Ryegrass, Italian plant response rating: 0
[1]; 125 g ai/ha
  Ryegrass, Italian plant response rating: 50
[2]
  Barnyardgrass plant response rating: 30
  Barnyardgrass plant response rating (0 to 100 scale): 90
[3]
  Blackgrass plant response rating: 30
  Blackgrass plant response rating (0 to 100 scale): 90
Corn (Zea mays)
  Corn plant response rating: 10
  Corn plant response rating (0 to 100 scale): 60
[4]
  Galium plant response rating: 60
  Galium plant response rating (0 to 100 scale): 90
[5]
  Foxtail, Giant plant response rating: 30
  Foxtail, Giant plant response rating (0 to 100 scale): 90
Kochia (Kochia scoparia); 31 g ai/ha
  Kochia plant response rating: 50
Kochia (Kochia scoparia); 125 g ai/ha
  Kochia plant response rating: 70
[6]; 31 g ai/ha
  Pigweed plant response rating: 80
[6]; 125 g ai/ha
  Pigweed plant response rating: 100
[7]; 31 g ai/ha
  Ragweed plant response rating: 10
[7]; 125 g ai/ha
  Ragweed plant response rating: 30
[8]; 31 g ai/ha
  Wheat plant response rating: 0
[8]; 125 g ai/ha
  Wheat plant response rating: 40
[9]
  Plant response rating, Barnyardgrass: 75
[10]
  Plant response rating, Ducksalad: 100
Rice (Oryza sativa)
  Plant response rating, Rice: 55
[11]
  Plant response rating, Sedge, Umbrella: 100
[12]; 62 g ai/ha, scale of 0 to 100
  Plant response rating, Barnyardgrass: 70
[12]; 125 g ai/ha, scale of 0 to 100
  Plant response rating, Barnyardgrass: 100
[12]; 16 g ai/ha, scale 0 to 100
  Plant response rating, Barnyardgrass: 10
[12]; 31 g ai/ha, scale 0 to 100
  Plant response rating, Barnyardgrass: 30
[13]; 16 g ai/ha, scale of 0 to 100
  Plant response rating, Galium: 70
[13]; 31 g ai/ha, scale 0 to 100
  Plant response rating, Galium: 75
[13]; 62 g ai/ha
  Galium plant response rating: 85
[13]; 125 g ai/ha
  Galium plant response rating: 90
[14]; 16 g ai/ha, scale of 0 to 100
  Plant response rating, Ragweed: 5
[14]; 31 g ai/ha, scale 0 to 100
  Plant response rating, Ragweed: 10
[14]; 62 g ai/ha
  Ragweed plant response rating: 15
[14]; 125 g ai/ha
  Ragweed plant response rating: 35
[15]; 16 g ai/ha, scale of 0 to 100
  Plant response rating, Velvetleaf: 30
[15]; 31 g ai/ha, scale 0 to 100
  Plant response rating, Velvetleaf: 35
[15]
  Velvetleaf plant response rating: 55
[16]; 16 g ai/ha, scale of 0 to 100
  Plant response rating, Waterhemp: 80
[16]; 31 g ai/ha, scale 0 to 100
  Plant response rating, Waterhemp: 80
[16]
  Waterhemp plant response rating: 90

## O=C(CCCCC(F)(F)F)c1c(Br)cccc1Oc1ncc(Cl)cn1 [Compound 82]
[1]; 31 g ai/ha
  Ryegrass, Italian plant response rating: 40
[1]; 125 g ai/ha
  Ryegrass, Italian plant response rating: 60
[2]
  Barnyardgrass plant response rating: 30
  Barnyardgrass plant response rating (0 to 100 scale): 100
[3]
  Blackgrass plant response rating: 40
  Blackgrass plant response rating (0 to 100 scale): 40
Corn (Zea mays)
  Corn plant response rating: 20
  Corn plant response rating (0 to 100 scale): 30
[4]
  Galium plant response rating: 90
  Galium plant response rating (0 to 100 scale): 100
[5]
  Foxtail, Giant plant response rating: 30
  Foxtail, Giant plant response rating (0 to 100 scale): 100
Kochia (Kochia scoparia); 31 g ai/ha
  Kochia plant response rating: 80
Kochia (Kochia scoparia); 125 g ai/ha
  Kochia plant response rating: 100
[6]; 31 g ai/ha
  Pigweed plant response rating: 100
[6]; 125 g ai/ha
  Pigweed plant response rating: 100
[7]; 31 g ai/ha
  Ragweed plant response rating: 40
[7]; 125 g ai/ha
  Ragweed plant response rating: 40
[8]; 31 g ai/ha
  Wheat plant response rating: 10
[8]; 125 g ai/ha
  Wheat plant response rating: 30
[9]
  Plant response rating, Barnyardgrass: 35
[10]
  Plant response rating, Ducksalad: 100
Rice (Oryza sativa)
  Plant response rating, Rice: 30
[11]
  Plant response rating, Sedge, Umbrella: 95
[12]; 125 g ai/ha, scale of 0 to 100
  Plant response rating, Barnyardgrass: 90
[12]; 16 g ai/ha, scale 0 to 100
  Plant response rating, Barnyardgrass: 5
[12]; 31 g ai/ha, scale 0 to 100
  Plant response rating, Barnyardgrass: 5
[12]; 62 g ai/ha, scale 0 to 100
  Plant response rating, Barnyardgrass: 20
[13]; 16 g ai/ha, scale of 0 to 100
  Plant response rating, Galium: 50
[13]; 31 g ai/ha, scale 0 to 100
  Plant response rating, Galium: 75
[13]; 62 g ai/ha
  Galium plant response rating: 85
[13]; 125 g ai/ha
  Galium plant response rating: 90
[14]; 16 g ai/ha, scale of 0 to 100
  Plant response rating, Ragweed: 40
[14]; 31 g ai/ha, scale 0 to 100
  Plant response rating, Ragweed: 35
[14]; 62 g ai/ha
  Ragweed plant response rating: 60
[14]; 125 g ai/ha
  Ragweed plant response rating: 55
[15]; 16 g ai/ha, scale of 0 to 100
  Plant response rating, Velvetleaf: 35
[15]; 31 g ai/ha, scale 0 to 100
  Plant response rating, Velvetleaf: 45
[15]
  Velvetleaf plant response rating: 75
[16]; 16 g ai/ha, scale of 0 to 100
  Plant response rating, Waterhemp: 65
[16]; 31 g ai/ha, scale 0 to 100
  Plant response rating, Waterhemp: 95
[16]
  Waterhemp plant response rating: 95
